Test results as given in patent publication US10633375B2, “Oxopicolinamide derivative, preparation method therefor and pharmaceutical use thereof” (Jiangsu Hengrui Medicine Co., Ltd., priority 2016, dated 2020).

Molecular target: Coagulation Factor XIa protease (Homo sapiens (Human), UniProt P03951)
Test: Inhibition of Factor XIa detected by absorption photometry
Type: biochemical
Conditions: absorbance at 405 nm, 10 minutes at 37° C.
Experimental: Test Example 1: Biological Activity of the Compounds of the Present Invention on
The Inhibition of Factor XIa Detected by Absorption Photometry
1. Experimental Materials
Enzyme: Coagulation Factor XIa protease (Abcam, Art. No ab62411)
Substrate: Coagulation Factor XIa specific substrate (HYPHEN1310 med, Art. No. Biophen cs-21(66))
2. Experimental Procedure
20 mM of test compound dissolved in 100% DMSO was diluted to 200, 20, 2, 0.2, 0.02, 0.002 μM with 100% DMSO; 1 μl of the compound was added to each well in a 384-well plate, blank and control wells were replaced with DMSO. The plate was centrifuged to remove the compound to the bottom. 10 μl (2.5 μg/ml) of FXIa enzyme solution was added to each well, and 10 μl of buffer was added to the blank well. The plate was centrifuged to remove the enzyme solution to the bottom.
Finally, 10 μl of 2 mM substrate were added to each well, and the plate was centrifuged to remove the substrate solution to the bottom.
The plate was incubated for 10 minutes at 37° C.; and then the absorbance was measured at 405 nm.

Coagulation Factor XIa protease, sequence (P03951 388-625): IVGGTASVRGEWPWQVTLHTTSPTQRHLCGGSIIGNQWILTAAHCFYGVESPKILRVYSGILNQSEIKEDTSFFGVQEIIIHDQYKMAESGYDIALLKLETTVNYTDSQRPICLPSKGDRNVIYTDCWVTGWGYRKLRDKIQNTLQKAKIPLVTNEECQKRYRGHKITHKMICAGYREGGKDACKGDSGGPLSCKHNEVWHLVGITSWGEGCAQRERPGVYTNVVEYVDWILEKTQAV
Coagulation Factor XIa protease, sequence (P03951 19-387 partner): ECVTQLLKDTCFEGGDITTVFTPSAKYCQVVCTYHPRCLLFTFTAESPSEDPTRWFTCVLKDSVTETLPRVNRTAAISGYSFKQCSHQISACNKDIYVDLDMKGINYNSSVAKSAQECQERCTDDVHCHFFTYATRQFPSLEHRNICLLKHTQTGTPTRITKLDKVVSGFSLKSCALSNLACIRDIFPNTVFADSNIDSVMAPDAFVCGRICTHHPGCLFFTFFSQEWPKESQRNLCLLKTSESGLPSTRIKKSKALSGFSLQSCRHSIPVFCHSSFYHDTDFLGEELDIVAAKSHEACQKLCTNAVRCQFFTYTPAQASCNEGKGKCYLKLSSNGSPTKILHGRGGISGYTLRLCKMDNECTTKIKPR

Q: `COc1cn(C(CCOC2CCC2)C(=O)Nc2ccc(C(=O)O)cc2)c(=O)cc1-c1cc(Cl)ccc1C(C)=O` (centres unmarked) [Example 162, 4-(2-(4-(2-acetyl-5-chlorophenyl)-5-methoxy-2-oxopyridin-1(2H)-yl)-4-cyclobutoxybutanamido)benzoic acid] was tested. Which IC50 did it give?
A: 35 nM

Q: For `COc1cn(C(Cc2ccc(NC(C)=O)cc2)C(=O)Nc2ccc(C(=O)O)cc2)c(=O)cc1-c1cc(Cl)ccc1C(C)=O` (centres unmarked) [Example 75, 4-(3-(4-acetamidophenyl)-2-(4-(2-acetyl-5-chlorophenyl)-5-methoxy-2-oxopyridin-1(2H)-yl)propanamido)benzoic acid], which IC50 is on record?
A: 100 nM

Q: For `COc1cn([C@H](Cc2ccn(C)n2)C(=O)Nc2ccc(C(=O)O)cc2)c(=O)cc1-c1cc(Cl)ccc1C(C)=O` [Example 102, (R)-4-(2-(4-(2-acetyl-5-chlorophenyl)-5-methoxy-2-oxopyridin-1(2H)-yl)-3-(1-methyl-1H-pyrazol-3-yl)propanamido)benzoic acid], which IC50 is on record?
A: 8210 nM

Q: With `COc1cn(C(Cc2ccccc2C)C(=O)Nc2ccc(C(=O)O)cc2)c(=O)cc1-c1cc(Cl)ccc1C(C)=O` (centres unmarked) [Example 66, 4-(2-(4-(2-acetyl-5-chlorophenyl)-5-methoxy-2-oxopyridin-1(2H)-yl)-3-(o-tolyl)propan amido)benzoic acid] as the compound, how does the IC50 read?
A: 34 nM

Q: Which IC50 does the source give for `COc1cn([C@H](Cc2cccnc2)C(=O)Nc2ccc(C(=O)O)cc2)c(=O)cc1-c1cc(Cl)ccc1C(C)=O` [Example 83, (R)-4-(2-(4-(2-acetyl-5-chlorophenyl)-5-methoxy-2-oxopyridin-1 (2H)-yl)-3-(pyridin-3-yl)propanamido)benzoic acid] here?
A: > 10000 nM

Q: With `COc1cn(C(Cc2cccc(C)c2)C(=O)Nc2ccc(C(=O)O)cc2)c(=O)cc1-c1cc(Cl)ccc1C(C)=O` (centres unmarked) [Example 67, 4-(2-(4-(2-acetyl-5-chlorophenyl)-5-methoxy-2-oxopyridin-1(2H)-yl)-3-(m-tolyl)propan amido)benzoic acid] as the compound, how does the IC50 read?
A: 35 nM

Q: Which IC50 does the source give for `COc1cn(C(Cc2ccccc2)C(=O)Nc2ccc3[nH]cnc3c2)c(=O)cc1-c1cc(Cl)ccc1C(C)=O` (centres unmarked) [Example 47, 2-(4-(2-acetyl-5-chlorophenyl)-5-methoxy-2-oxopyridin-1 (2H)-yl)-N-(1H-benzo[d]imidazol-5-yl)-3-phenylpropanamide] here?
A: 82 nM

Q: With `COc1cn(C(CCOC(C)(C)C)C(=O)Nc2ccc(C(=O)O)cc2)c(=O)cc1-c1cc(Cl)ccc1C(C)=O` (centres unmarked) [Example 110, 4-(2-(4-(2-acetyl-5-chlorophenyl)-5-methoxy-2-oxopyridin-1(2H)-yl)-4-(tert-butoxy)butanamido)benzoic acid] as the compound, how does the IC50 read?
A: 53 nM

Q: With `COCCC(C(=O)Nc1ccc(C(=O)O)cc1)n1cc(OC)c(-c2c(C(C)=O)ccc(Cl)c2F)cc1=O` (centres unmarked) [Example 146, 4-(2-(4-(6-acetyl-3-chloro-2-fluorophenyl)-5-methoxy-2-oxopyridin-1(21)-yl)-4-methoxvbutanamido)benzoic acid] as the compound, how does the IC50 read?
A: 37 nM

Q: How did the IC50 turn out when `COc1cn(C(Cc2ccc(C)cc2)C(=O)Nc2ccc(C(=O)O)cc2)c(=O)cc1-c1cc(Cl)ccc1C(C)=O` (centres unmarked) [Example 74, 4-(2-(4-(2-acetyl-5-chlorophenyl)-5-methoxy-2-oxopyridin-1(2H)-yl)-3-(p-tolyl)propanamido)benzoic acid] was run?
A: 100 nM

Q: For `COc1cn(C(Cc2ccccc2)C(=O)Nc2ccc3ncncc3c2)c(=O)cc1-c1cc(Cl)ccc1C(C)=O` (centres unmarked) [Example 40, 2-(4-(2-acetyl-5-chlorophenyl)-5-methoxy-2-oxopyridin-1(2H)-yl)-3-phenyl-N-(quinazolin-6-yl)propanamide], which IC50 is on record?
A: 38 nM

Q: How did the IC50 turn out when `COc1cn(C(CCOC(C)(C)C)C(=O)Nc2ccc(C(=O)O)cc2)c(=O)cc1-c1c(C(C)=O)ccc(Cl)c1F` (centres unmarked) [Example 120, 44-(2-(4-(6-acetyl-3-chloro-2-fluorophenyl)-5-methoxy-2-oxopyridin-1(2H)-yl)-4-(tert-butoxy)butanamido)benzoic acid] was run?
A: 49 nM

Q: How did the IC50 turn out when `CCC(=O)c1ccc(Cl)cc1-c1cc(=O)n(C(CCOC(C)(C)C)C(=O)Nc2ccc3[nH]c(C(=O)O)cc3c2)cc1OC` (centres unmarked) [Example 119, 5-(4-(tert-butoxy)-2-(4-(5-chloro-2-propionylphenyl)-5-methoxy-2-oxopyridin-1(2H)-yl)butanamido)-1H-indole-2-carboxylic acid] was run?
A: 45 nM

Q: `COc1cn(C(Cc2ccccc2)C(=O)Nc2ccc3nccnc3c2)c(=O)cc1-c1cc(Cl)ccc1C(C)=O` (centres unmarked) [Example 45, 2-(4-(2-acetyl-5-chlorophenyl)-5-methoxy-2-oxopyridin-1(2H)-yl)-3-phenyl-N-(quinoxalin-6-yl)propanamide] was tested. Which IC50 did it give?
A: 69 nM

Q: `CCC(=O)c1ccc(Cl)cc1-c1cc(=O)n([C@H](CCOC(C)(C)C)C(=O)Nc2ccc3nccnc3c2)cc1OC` [Example 115, (R)-4-(tert-butoxy)-2-(4-(5-chloro-2-propionylphenyl)-5-methoxy-2-oxopyridin-1(2H)-yl)-N-(quinoxalin-6-yl)butanamide] was tested. Which IC50 did it give?
A: > 10000 nM

Q: Which IC50 does the source give for `COc1cn(C(CC2CC2)C(=O)Nc2ccc(C(=O)O)cc2)c(=O)cc1-c1cc(Cl)ccc1C(C)=O` (centres unmarked) [Example 167, 4-(2-(4-(2-acetyl-5-chlorophenyl)-5-methoxy-2-oxopyridin-1(2H)-yl)-3-cyclopropylpropanamido)benzoic acid] here?
A: 92 nM

Q: For `COc1cn(C(Cc2ccccc2)C(=O)Nc2ccc3cnccc3c2)c(=O)cc1-c1cc(Cl)ccc1C(C)=O` (centres unmarked) [Example 46, 2-(4-(2-acetyl-5-chlorophenyl)-5-methoxy-2-oxopyridin-1 (2H)-yl)-N-(isoquinolin-6-yl)-3-phenylpropanamide], which IC50 is on record?
A: 71 nM

Q: For `COc1cn(C(Cc2ccccn2)C(=O)Nc2ccc(C(=O)O)cc2)c(=O)cc1-c1cc(Cl)ccc1C(C)=O` (centres unmarked) [Example 79, 4-(2-(4-(2-acetyl-5-chlorophenyl)-5-methoxy-2-oxopyridin-1(2H)-yl)-3-(pyridin-2-yl)propanamido)benzoic acid], which IC50 is on record?
A: 45 nM

Q: For `CCC(=O)c1ccc(Cl)cc1-c1cc(=O)n(C(CCOC(C)(C)C)C(=O)Nc2ccc3nn(C)cc3c2)cc1OC` (centres unmarked) [Example 141], which IC50 is on record?
A: 66 nM

Q: With `CCC(=O)c1ccc(Cl)cc1-c1cc(=O)n(C(Cc2ccccc2)C(=O)Nc2ccc3cn[nH]c3c2)cc1OC` (centres unmarked) [Example 27, 2-(4-(5-chloro-2-propionylphenyl)-5-methoxy-2-oxopyridin-1(2H)-yl)-N-(1H-indazol-6-yl)-3-phenylpropanamide] as the compound, how does the IC50 read?
A: 66 nM

Q: For `COc1cn(C(Cc2ccccc2F)C(=O)Nc2ccc(C(=O)O)cc2)c(=O)cc1-c1cc(Cl)ccc1C(C)=O` (centres unmarked) [Example 68, 4-(2-(4-(2-acetyl-5-chlorophenyl)-5-methoxy-2-oxopyridin-1(2H)-yl)-3-(2-fluorophenyl)propanamido)benzoic acid], which IC50 is on record?
A: 47 nM

Q: How did the IC50 turn out when `COc1cn([C@H](CC2CCC2)C(=O)Nc2ccc(C(=O)O)cc2)c(=O)cc1-c1cc(Cl)ccc1C(C)=O` [Example 172, (R)-4-(2-(4-(2-acetyl-5-chlorophenyl)-5-methoxy-2-oxopyridin-1(2H)-yl)-3-cyclobutylpropanamido)benzoic acid] was run?
A: 8920 nM

Q: For `COc1cn([C@@H](Cc2ccn(C)n2)C(=O)Nc2ccc(C(=O)O)cc2)c(=O)cc1-c1cc(Cl)ccc1C(C)=O` [Example 101, (S)-4-(2-(4-(2-acetyl-5-chlorophenyl)-5-methoxy-2-oxopyridin-1(2H)-yl)-3-(1-methyl-1H-pyrazol-3-yl)propanamido)benzoic acid], which IC50 is on record?
A: 23 nM

Q: With `COc1cn(C(Cc2ccc(NC(=O)C3CC3)cc2)C(=O)Nc2ccc(C(=O)O)cc2)c(=O)cc1-c1cc(Cl)ccc1C(C)=O` (centres unmarked) [Example 16, 4-(2-(4-(2-acetyl-5-chlorophenyl)-5-methoxy-2-oxopyridin-1(2H)-yl)-3-(4-(cyclopropanecarboxamido)phenyl)propanamido)benzoic acid] as the compound, how does the IC50 read?
A: 100 nM

Q: How did the IC50 turn out when `COc1cn([C@@H](CCOC(C)(C)C)C(=O)Nc2ccc(C(N)=O)cc2)c(=O)cc1-c1cc(Cl)ccc1C(C)=O` [Example 122, (S)-4-(2-(4-(2-acetyl-5-chlorophenyl)-5-methoxy-2-oxopyridin-1(2H)-yl)-4-(tert-butoxy)butanamido)benzamide] was run?
A: 100 nM

Q: For `COc1cn(C(Cc2ccc(F)cc2)C(=O)Nc2ccc(C(=O)O)cc2)c(=O)cc1-c1cc(Cl)ccc1C(C)=O` (centres unmarked) [Example 63, 4-(2-(4-(2-acetyl-5-chlorophenyl)-5-methoxy-2-oxopyridin-1(2H)-yl)-3-(4-fluorophenyl)propanamido)benzoic acid], which IC50 is on record?
A: 55 nM

Q: How did the IC50 turn out when `COc1cn([C@@H](CC2CC2)C(=O)Nc2ccc(C(=O)O)cc2)c(=O)cc1-c1cc(Cl)ccc1C(C)=O` [Example 168, (S)-4-(2-(4-(2-acetyl-5-chlorophenyl)-5-methoxy-2-oxopyridin-1(2H)-yl)-3-cyclopropylpropanamido)benzoic acid] was run?
A: 43 nM

Q: With `CNC(=O)c1ccc(NC(=O)[C@H](CCOC(C)(C)C)n2cc(OC)c(-c3cc(Cl)ccc3C(C)=O)cc2=O)cc1` [Example 123, (S)-4-(2-(4-(2-acetyl-5-chlorophenyl)-5-methoxy-2-oxopyridin-1(2H)-yl)-4-(tert-butoxy)butanamido)-N-methylbenzamide] as the compound, how does the IC50 read?
A: 100 nM

Q: `COc1cn(C(Cc2c(Cl)cccc2Cl)C(=O)Nc2ccc(C(=O)O)cc2)c(=O)cc1-c1cc(Cl)ccc1C(C)=O` (centres unmarked) [Example 76, 4-(2-(4-(2-acetyl-5-chlorophenyl)-5-methoxy-2-oxopyridin-1(2H)-yl)-3-(2,6-dichlorophenyl)propanamido)benzoic acid] was tested. Which IC50 did it give?
A: 100 nM
